Assays:
SAEC = experiment: IL-13-induced ROS levels (H2DCF-DA fluorescence); type: cell-based, human; settings: fidarestat 10 μM overnight, IL-13 25 ng/ml 1 h
Experimental: FIGS. 3A-3B. Inhibition of AR prevents IL-13-induced reactive oxygen species (ROS) production in SAEC. (A) Approximately 5×10^4 cells were seeded on 2-chambered slides and starved in serum-free basal medium without or with fidarestat overnight. The cells were washed with 1×HBSS and incubated with 10 μM H2DCF-DA at 37° C. for 30 min, washed again and treated with IL-13 (25 ng/ml) for 1 h. The cells were washed with cold 1×HBSS twice and mounted using floursave mounting medium with DAPI. Photomicrographs were acquired using a fluorescence microscope (Nikon). A representative image is shown (n=4); Magnification 400×. (B) Approximately 10,000 SAEC were plated per well in a 96-well plate and serum-starved for 24 h without or with fidarestat. […] At the end of the treatment, cells were washed twice with HBSS and fluorescence was determined at 485 nm excitation and 538 nm emission wavelengths. Relative ROS production is expressed as mean fluorescence intensity (MFI) (arbitrary units). […] The cells on the culture slide were mounted using floursave mounting medium with DAPI after which photomicrographs were acquired using a fluorescence microscope (Nikon). Fluorescence was determined using 485 nm excitation and 538 nm emission wavelengths for cells in 96-well plate and relative ROS production is expressed as mean fluorescence intensity (MFI) (arbitrary units).

JAK1 = experiment: Western blot of JAK1 phosphorylation in airway epithelial monolayer; type: cell-based, human
Experimental: FIG. 7. AR inhibition prevents IL-13-induced phosphorylation of JAK-1, ERK1/2 and STAT-6 in airway epithelial monolayer. The ciliated monolayer of airway cells at ALI was treated with AR inhibitor for 24 h and stimulated with IL-13 for different time periods as indicated. At the end of incubation, cells were lysed and cell lysate was subjected to western blotting using antibodies against phosphorylated and nonphosphorylated JAK-1, ERK1/2 and STAT-6 to analyze the activation of these signaling proteins. A representative blot is shown (n=4). #p<0.001 vs Control; *p<0.01 and **p<0.001 vs IL-13. For air-liquid interface (ALI) culture, SAEC were seeded at 8.5×10^4 cells/12-mm-diameter PET transparent insert with […] pores (12-well millicell culture insert; Millipore) and pre-coated with rat tail collagen type-1 (Sigma-Aldrich). The cells were grown submerged in the differentiation medium as described earlier by Zhen et al. (Am J Respir Cell Mol Biol 36: 244-253, 2007). […] Protein levels were determined using Bradford reagent (Biorad, Hercules, Calif.). […] The blots were then washed, exposed to HRP-conjugated secondary antibodies (1:5,000 dilution) for 1 h, and the antigen-antibody complex was detected by enhanced chemiluminescence (Amersham Pharmacia Biotech, Piscataway, N.J., USA). […]

For `NC(=O)[C@@H]1C[C@]2(NC(=O)NC2=O)c2cc(F)ccc2O1` [fidarestat, (2S,4S)-2-aminoformyl-6-fluoro-spiro[chroman-4,4′-imidazolidine]-2′,5′-dione], the “prevention of IL-13-induced increase in ROS levels” value (SAEC) was 80%, the “IL-13-induced phosphorylation of JAK1” value (JAK1; ALI monolayer, AR inhibitor 24 h prior to IL-13) was “decreased significantly” and the “basal phosphorylation of JAK1” value (JAK1; AR inhibitor alone, no IL-13) was “decreased”.

— patent publication US8785483B2, “Methods for treating COPD” (The Board of Regents of the University of Texas System, priority 2010, dated 2014)
